In test [1] the test system is wild type Arabidopsis thaliana (Col). As to the kind of experiment: Photosynthesis activity (Fv/Fm of PS II) of leaves after phytohormone treatment. Type of test: in vivo. The conditions noted are these: wild type leaves at 25 DAG; 50 μM ABA or 50 μM MeJA in MES buffer, or 4.5 μM ethylene gas; 22° C., continuous light. How it is done:
(§1) In order to measure photosynthesis activity, a method of Oh et al. (Oh S. A. et al., Plant Mol. Biol., 30: 939, 1996), was used. First, leaves at the respective DAG were dark-treated for 15 minutes and measured for fluorescence of chlorophylls using Plant Efficiency Analyzer (Hansatech). The photosynthesis activity was expressed as photochemical efficiency of photosystem II (PS II) using a fluorescent property of chlorophylls. The photochemical efficiency was expressed as the ratio of maximum variable fluorescence (Fv) to maximum value of fluorescence (Fm) (Fv/Fm). As the ratio is increased, the photosynthesis activity improves.
(§2) Further, in the present invention, a change in leaf longevity of the ore7 mutant according to treatment with phytohormones, such as ABA, MeJA and ethylene that are involved in senescence regulation was examined by measuring changes in photosynthesis activity and chlorophyll content. 12 independent leaves at 25 DAG were floated in 2 ml of MES buffer containing 50 μM ABA or 50 μM MeJA. Treatment with ethylene was carried out by culturing Arabidopsis thaliana in a glass box containing 4.5 μM ethylene gas. As a negative control group, MES buffer not containing ABA or MeJA was used. The treatments with phytohormones as described above were carried out for three days at 22° C. with continuous exposure to light. The chlorophyll content and the photosynthesis activity were measured in the same manner as described in Example 2.

The subject of test [2] is longevity-extended mutant ore7. It is filed as in vivo, Arabidopsis thaliana. The conditions noted are these: ore7 mutant leaves at 25 DAG; 50 μM ABA or 50 μM MeJA in MES buffer, or 4.5 μM ethylene gas; 22° C., continuous light. How it is done: as §1, §2
Test [3] relates to wild type Arabidopsis thaliana (Col). Briefly: Chlorophyll content of leaves after phytohormone treatment. Type of test: in vivo. The conditions noted are these: wild type leaves at 25 DAG; 50 μM ABA or 50 μM MeJA in MES buffer, or 4.5 μM ethylene gas; 22° C., continuous light. How it is done: (§3) In order to measure the chlorophyll content, the respective sample leaves were boiled in 95% ethanol at 80° C., thereby extracting chlorophyll. The chlorophyll content was measured at absorbance of 648 nm and 664 nm, and expressed as chlorophyll concentration per fresh weight of leaves (Vermon et al., Anal. Chem., 32:1142–1150, 1960).
as §2

The subject of test [4] is longevity-extended mutant ore7. It is filed as in vivo, Arabidopsis thaliana. To be noted: ore7 mutant leaves at 25 DAG; 50 μM ABA or 50 μM MeJA in MES buffer, or 4.5 μM ethylene gas; 22° C., continuous light. As to the method: as §3, §2
The source holds these as a separate data set.

Test [5] concerns wild type Arabidopsis thaliana (Col). Briefly: Northern blot analysis of SEN4 expression after phytohormone treatment. To be noted: wild type compared to ore7 mutant; 0, 3, 4 and 5 days after treatment. Type of test: in vivo.

Each structure is given as a SMILES string. “Also recorded” adds a separate entry of the source.

Turning to `CC1=CC(=O)CC(C)(C)[C@@]1(O)/C=C/C(C)=C\C(=O)O` [ABA, abscisic acid], the figures for the “change in photosynthesis activity” value in test [1] and in test [2] were “significantly reduced; also recorded: rapidly decreased” and “slight decrease”, respectively. Moreover, the “change in chlorophyll content” value in test [3] is listed as “significantly reduced”. Further, in test [4], the “reduction in chlorophyll content” value is reported as “became blunt”. Besides, the “expression of SEN4 gene” value in test [5] is on record as “highly increased”.

On to `CC/C=C\CC1C(=O)CCC1CC(=O)OC` (stereo not drawn) [MeJA, methyl jasmonate], for which the “change in photosynthesis activity” value is “significantly reduced; also recorded: rapidly decreased” in test [1] and “slight decrease” in test [2]. Moreover, the “change in chlorophyll content” value in test [3] is reported as “significantly reduced”. Moreover, in test [4], the “reduction in chlorophyll content” value is recorded as “became blunt”. In test [5], the “expression of SEN4 gene” value is “highly increased”.

For `C=C` [ethylene], the “change in photosynthesis activity” value in test [1] is reported as “significantly reduced; also recorded: rapidly decreased”; in test [2], “slight decrease”. Further, the “change in chlorophyll content” value in test [3] is recorded as “significantly reduced”. In addition, in test [4], the “reduction in chlorophyll content” value is “became blunt”. Moreover, in test [5], the “expression of SEN4 gene” value is on record as “highly increased”.
